Test results taken from patent US20040186104A1, “Novel pyridinone and related heterocyclic derivatives” (priority 2001, published 2004).

What was measured:
[1] = molecular target: T1, human kappa opioid receptor (Homo sapiens, UniProt P41145); assay: Binding assay for opioid receptor transfected cell membrane in 96-well format (filtration), kappa opioid receptor; details: HEK293S KOR cell membranes, radioligand 125I-(D-Pro10)-Dynorphin A (1-11), control inhibitor
T1 construct: expressed in transfected cells; host or cells: HEK293S KOR cells (membrane preparations)
From the text: (§1) Compounds of the invention, prepared using the general methods described above, may be tested for their ability to bind to the human kappa opioid receptor using standard procedures well known to those skilled in the art.
Binding Assay for Opioid Receptor Transfected Cell Membrane in 96-Well Format
Principle: The procedures describe how to perform and interpret receptor binding experiments designed to determine the affinities of new compounds for μ, δ and κ receptors. The total and nonspecific binding are determined in the absence and presence of selective opioid receptor radiolabeled ligand.
Procedure for Kappa Opioid Receptor:
The total and non-specific binding are determined in absence and presence of 1 μM of Asimadoline and added with the multichannel pipett in respectively well of the 96 well plate (see table 1).
The radioligand 125I-(D-pro)-Dynorphin A (1-1 1) is added containing 30 000-50 000 CPM per well.
Membranes are thawed at room temperature and diluted in assay buffer to the appropriate amount of protein, homogenized 5-10 times in glas/glas, and added to the 96 well plate.
Vortex the plate 1 minute, incubate at room temperature for 60-75 minutes, vortex 1 minute and the reaction was terminated by rapid filtration (Micro96 Harvester, Skatron Instruments, Norway) to separate bound from free ligand. […]

[2] = molecular target: T1, human kappa opioid receptor; assay: SPA binding assay for kappa-opioid receptor transfected cell membrane in 96-well format; details: HEK293S KOR cell membranes, radioligand 125I-(D-Pro10)-Dynorphin A (1-11), control inhibitor
From the text: as §1
SPA Binding Assay for Kappa-Opioid Receptor Transfected Cell Membrane in 96-Well Format
Principle: Membranes containing the kappa opioid receptor are coupled to SPA beads, the ability of tested compounds to dislocate a radio ligand the protein agonist Dynorphin. (^125I-(D-Pro^10)-Dynorphin A (1-11)) are determined. Only radioaktivity in close proximity to the beads, that is bound to membranes attached to beads, will be measured.
Procedure: The total and non-specific binding are determined in absence and presence of 0.5 μM of Dynorphin, radioligand is added containing 15 000-20 000 CPM per well.
The membrane and SPA beads precouples over night (18-22 hours) in assay buffer at room temperature on a shaking platform, with rotary movement. The mixture of membrane and beads are pipetted together with the assay-buffer, agents and the radioligand into a 96-well microtiterplate.
The plate is incubated for 1 hours at room temperature, and counted in a WALLAC TRILUX MicroBeta.
Percentage inhibition is calculated for each well from the two standards, 0% and 100% inhibition.
The binding buffer, 50 mM Tris, 3 mM MgCl2, stored at +4° C. […]

T1 sequence (P41145 whole entry): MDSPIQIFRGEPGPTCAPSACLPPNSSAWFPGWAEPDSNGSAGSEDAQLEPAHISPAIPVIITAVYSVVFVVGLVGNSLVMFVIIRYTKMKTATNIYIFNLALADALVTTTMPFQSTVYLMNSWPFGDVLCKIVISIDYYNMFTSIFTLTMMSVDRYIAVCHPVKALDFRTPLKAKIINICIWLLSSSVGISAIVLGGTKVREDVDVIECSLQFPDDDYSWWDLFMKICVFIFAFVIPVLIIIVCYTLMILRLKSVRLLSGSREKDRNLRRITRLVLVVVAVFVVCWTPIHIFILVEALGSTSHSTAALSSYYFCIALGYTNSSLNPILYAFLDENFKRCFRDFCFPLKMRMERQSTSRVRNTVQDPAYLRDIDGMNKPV

CN(C(=O)C(c1ccccc1)c1ccccc1)[C@H](CN1CC[C@H](O)C1)c1ccccc1 [Asimadoline]
IC50 [1]: 4 to 10 nM
IC50 [2]: ~4 nM
